This is an account of results in ChEMBL document CHEMBL1201862, “PubChem BioAssay data set” (2004).

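Values below derive from 48-hour exposures of cells grown in 96-well plates, with endpoints linearly interpolated between the two concentrations bracketing the appropriate inhibition level. At the GI50, growth is halved.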 Active and inactive are the calls of the source. No stated cut-off is given here; in the data, active = GI50 up to about 1.1 µM and inactive = higher.

Assay in all cases: NCI-60 cell line screen, 48 h
The subject of experiment [1] is 786-0.
Experiment [2] concerns CAKI-1.
Experiment [3] relates to EKVX.
Experiment [4] has as its system HT-29.
Experiment [5] concerns M14.
The test system of experiment [6] is MCF7.
In experiment [7] the test system is MDA-MB-435.
In experiment [8] the test system is MDA-N.
In experiment [9] the test system is NCI-H23.
Experiment [10] has as its system NCI-H522.
For experiment [11], the system named is NCI/ADR-RES.
The subject of experiment [12] is OVCAR-8.
The test system of experiment [13] is PC-3.
The test system of experiment [14] is SF-268.
Experiment [15] relates to SK-OV-3.
For experiment [16], the system named is SN12C.
Experiment [17] concerns SR.
The subject of experiment [18] is SW-620.
Experiment [19] deals with UACC-62.
The test system of experiment [20] is SK-MEL-2.

Regarding `CCN(CC)c1ccc(C2NC(=O)c3ccccc3N2)cc1` (stereo not drawn), the GI50 in experiment [1] was 2.99 µM (inactive); in experiment [2], 2.82 µM (inactive); in experiment [3] it was 5.24 µM (inactive); in experiment [4], 2.31 µM (inactive); in [5], 2.93 µM (inactive); in experiment [6], 3.73 µM (inactive). Also, the GI50 in [7] is 0.698 µM (active); in experiment [8], 0.847 µM (active); in experiment [9], 2.77 µM (inactive); in experiment [10] it was 14.8 µM (inactive); in experiment [11] it was 1.85 µM (inactive); in experiment [12], 3.62 µM (inactive). Further, the GI50 is 3.32 µM (inactive) in [13]; 8.57 µM (inactive) in experiment [14]; 3.74 µM (inactive) in experiment [15]; 9.98 µM (inactive) in experiment [16]; 0.557 µM (active) in experiment [17]; 1.5 µM (inactive) in experiment [18]. For the same compound, the GI50 in [19] is 3.1 µM (inactive).

Consider `Cn1c(=O)nc2n(CCO)ccnc-2c1=O`, for which the GI50 in experiment [1], in [2], in [3], in experiment [4], in experiment [5] and in experiment [6] was > 100 µM (inactive) in each case. Besides, the GI50 in experiment [7], in experiment [8], in [9], in experiment [10], in experiment [11] and in experiment [12] was > 100 µM (inactive) each time. Moreover, the GI50 in experiment [13], in experiment [14], in experiment [20], in experiment [16], in [17] and in experiment [18] was > 100 µM (inactive) each time. Moreover, the GI50 in experiment [19] is > 100 µM (inactive).

As for `CC(C)[C@@H]1CC[C@@H](C)C[C@H]1OC(=O)c1c2n(c3ccccc13)C[C@H]1OC(C)(C)O[C@@H]21`, the GI50 in experiment [1] was 16.5 µM (inactive); in experiment [2] it was 26.9 µM (inactive); in experiment [3], 6.81 µM (inactive); in experiment [4], 8.2 µM (inactive); in experiment [5], 22.9 µM (inactive); in [6] it was 14.1 µM (inactive). Also, the GI50 is 30.5 µM (inactive) in experiment [7]; 19.7 µM (inactive) in experiment [8]; 5.77 µM (inactive) in experiment [9]; 13.2 µM (inactive) in experiment [11]; 20.9 µM (inactive) in [12]; 5.71 µM (inactive) in experiment [13]. Moreover, the GI50 in experiment [14] was 19.2 µM (inactive); in experiment [20], > 100 µM (inactive); in experiment [15] it was 21.3 µM (inactive); in experiment [16] it was 24.9 µM (inactive); in experiment [17] it was 3.23 µM (inactive); in [18], 16.6 µM (inactive). In addition, the GI50 in experiment [19] is 18 µM (inactive).

Regarding `O=C(/C=C1/Nc2ccc([N+](=O)[O-])cc2N/C1=C/C(=O)c1ccc(Cl)cc1)c1ccc(Cl)cc1`, the GI50 in experiment [1] is > 100 µM (inactive); in experiment [2], > 100 µM (inactive); in [3], > 100 µM (inactive); in [4], > 100 µM (inactive); in experiment [5] it was > 100 µM (inactive); in experiment [6], 49.5 µM (inactive). In addition, the GI50 is > 100 µM (inactive) in experiment [7]; > 100 µM (inactive) in experiment [8]; 11.6 µM (inactive) in experiment [9]; 4.41 µM (inactive) in [10]; 43.2 µM (inactive) in experiment [11]; 54.8 µM (inactive) in experiment [12]. For the same compound, the GI50 in experiment [13] is 41.4 µM (inactive); in [14] it was 60.5 µM (inactive); in [20] it was 13.6 µM (inactive); in [16], 17.7 µM (inactive); in experiment [17] it was > 100 µM (inactive); in [19] it was 49.4 µM (inactive).

With `O=C(O)C/N=C(\C(=N\CC(=O)O)c1ccccc1)c1ccccc1`, the GI50 in experiment [1], in [2], in experiment [3], in experiment [5], in experiment [6] and in experiment [7] was > 100 µM (inactive) each time. Moreover, the GI50 in experiment [8], in experiment [9], in experiment [10], in experiment [11], in experiment [12] and in experiment [13] was > 100 µM (inactive) each time. The GI50 in experiment [14], in [20], in experiment [15], in experiment [16], in [17] and in experiment [18] was > 100 µM (inactive) each time. Also, the GI50 in experiment [19] was > 100 µM (inactive).

Take `O=C1C=CC2(C=C1)CCC(=O)O2`: the GI50 was 15 µM (inactive) in experiment [1]; 5.87 µM (inactive) in experiment [2]; 17.9 µM (inactive) in experiment [3]; 22.9 µM (inactive) in [4]; 29.2 µM (inactive) in experiment [5]; 13.4 µM (inactive) in experiment [6]. The GI50 in experiment [7] was 15.5 µM (inactive); in [8], 27.9 µM (inactive); in experiment [9] it was 14.2 µM (inactive); in experiment [10] it was 2.34 µM (inactive); in experiment [11], 32.9 µM (inactive); in [12] it was 16.2 µM (inactive). Besides, the GI50 is 12.6 µM (inactive) in [13]; 12.1 µM (inactive) in experiment [14]; 16.1 µM (inactive) in [20]; 16.1 µM (inactive) in [16]; 6.38 µM (inactive) in [17]; 11.6 µM (inactive) in experiment [18]. Further, the GI50 in [19] was 16.5 µM (inactive).

In the case of `CNC(=O)Oc1ccc(C(=S)Nc2ccc(Br)cc2)cc1`, the GI50 in experiment [1] is 21.8 µM (inactive); in experiment [2] it was 17.8 µM (inactive); in [3], 8.05 µM (inactive); in experiment [4] it was 19.9 µM (inactive); in [5], 18.1 µM (inactive); in [6] it was 18.3 µM (inactive). The GI50 in experiment [7] was 21.8 µM (inactive); in experiment [8] it was 22.2 µM (inactive); in experiment [9], 15.7 µM (inactive); in experiment [10] it was 11.4 µM (inactive); in experiment [11], 17.6 µM (inactive); in experiment [12] it was 7.98 µM (inactive). In addition, the GI50 is 23.8 µM (inactive) in [13]; 9.55 µM (inactive) in experiment [14]; 17.7 µM (inactive) in experiment [20]; 44 µM (inactive) in experiment [15]; 13.6 µM (inactive) in experiment [17]; 23.1 µM (inactive) in [18]. In experiment [19], the GI50 is 12.9 µM (inactive).

Regarding `O=C1C=CC2(C=C1)O[C@H](COCc1ccccc1)[C@@H](COCc1ccccc1)O2`, the GI50 is 0.627 µM (active) in experiment [1]; 2.24 µM (inactive) in experiment [2]; 1.59 µM (inactive) in experiment [3]; 2.34 µM (inactive) in experiment [4]; 1.78 µM (inactive) in experiment [5]; 0.313 µM (active) in experiment [6]. Moreover, the GI50 in experiment [7] was 2.27 µM (inactive); in experiment [8] it was 1.52 µM (inactive); in experiment [9], 1.77 µM (inactive); in experiment [11], 1.83 µM (inactive); in experiment [12], 0.305 µM (active); in experiment [13] it was 2.13 µM (inactive). In addition, the GI50 is 1.64 µM (inactive) in [14]; 1.71 µM (inactive) in [20]; 15.7 µM (inactive) in experiment [15]; 1.65 µM (inactive) in experiment [16]; 0.251 µM (active) in [17]; 0.271 µM (active) in [18]. In addition, in experiment [19], the GI50 was 1.88 µM (inactive).

Consider `CN(C)c1ccc(-c2ccc(N(C)C)c3n[se]nc23)c2n[se]nc12`, for which the GI50 in experiment [1], in [2], in experiment [3], in [4], in experiment [6] and in experiment [7] was > 100 µM (inactive) in each case. Further, the GI50 in [8], in experiment [9], in experiment [10], in experiment [11], in [12] and in experiment [13] was > 100 µM (inactive) throughout. Moreover, the GI50 in [14], in [20], in [15], in experiment [16], in [17] and in experiment [18] was > 100 µM (inactive) each time. Moreover, the GI50 in [19] is > 100 µM (inactive).

On to `CN1CCN(Cn2nc(-c3ccccc3)n(/N=C/c3ccc(-c4ccc(Cl)cc4Cl)o3)c2=S)CC1`, for which the GI50 was 13.1 µM (inactive) in experiment [1]; 7.36 µM (inactive) in [2]; 30.1 µM (inactive) in experiment [3]; 12.3 µM (inactive) in experiment [4]; 10.8 µM (inactive) in experiment [5]; 12.4 µM (inactive) in experiment [6]. For the same compound, the GI50 is 11.4 µM (inactive) in [7]; 13.4 µM (inactive) in experiment [8]; 18.7 µM (inactive) in experiment [9]; 28.2 µM (inactive) in experiment [10]; 16 µM (inactive) in [11]; 8.45 µM (inactive) in [12]. In addition, the GI50 in experiment [13] was 8.43 µM (inactive); in experiment [14] it was 5.83 µM (inactive); in [20], 20.7 µM (inactive); in experiment [15], 13.5 µM (inactive); in [17] it was 1.51 µM (inactive); in experiment [18], 11.8 µM (inactive).
